Test results taken from patent publication US20220241266A1, “COMPOSITIONS AND METHODS USING TRIGONELLINE AND HIGH PROTEIN FOR PREVENTING OR TREATING CONDITIONS OR DISORDERS IN SKELETAL MUSCLE” (SOCIETE DES PRODUITS NESTLE S.A., priority 2019, published 2022).

What was measured:
[1] = test system: Human Skeletal Muscle Myotubes (HSMM); details: 6 h, 500 μm
Description: Human primary myoblasts from two different donors were seeded in 6 well plates at a density of 200,000 cells per well in skeletal muscle growth medium (SKM-M, AMSbio). After one day, the differentiation was induced by a medium change for 4 days using differentiation culture medium (Gibco No. 31330-028). Cells were treated with isotopically labelled trigonelline (^13C carbonyl; 3^2H on methyl) for 6 h.
Cell extracts were separated on a Vanquish UHPLC+focused LC system (Thermo Scientific) with a hydrophilic liquid chromatography (HILIC) iHILIC-Fusion(P) column (Hilicon) carrying the dimensions 150×2.1 mm, 5 μm and a guard column (iHILIC-fusion(P), Hilicon) in front. The separation of metabolites was achieved by applying a linear solvent gradient in normal phase at 0.25 mL/min flow rate and 35° C. of temperature. As mobile phase, solvent A was water with 10 mM ammonium acetate and 0.04% (v/v) ammonium hydroxide, pH ˜9.3, and solvent B was acetonitrile.
The eluting metabolites were analyzed with an Orbitrap Fusion Lumos mass spectrometer (Thermo Scientific) with a heated electrospray ionization (H-ESI) source in positive and negative mode at a resolution of 60,000 at m/z of 200. Instrument control and data analysis were conducted using Xcalibur (Thermo Scientific).

C. elegans [2] = details: 1 mM trigonelline chloride, day 8 old worms, vs control
Description: Absolute quantification of the mtDNA copy number in wild type N2 worms was performed by real-time PCR. Relative values for nduo-1, and act-1 were compared within each sample to generate a ratio representing the relative level of mitochondrial DNA per nuclear genome. The average of at least two technical repeats was used for each biological data point. Each experiment was performed on at least ten independent biological samples (individual worms). Trigonelline treatment with 1 mM trigonelline chloride and experimental measurements were started at Day 1 of wild type N2 worm adulthood, in a regimen of chronic exposure till experiments termination.

[3] = test system: RW1596 (myo-3p::GFP) worms; details: 1 mM trigonelline chloride, 11 day old worms vs age matched control
Description: RW1596 (myo-3p::GFP) worms were collected at Day 1 (young adults) and at Day 11 (aged animals) for muscle integrity assessment. Worms were immobilized with tetramisole and analyzed by confocal microscopy, to assess the muscle fibers morphology shown by GFP fluorescence imaging. Trigonelline treatment with 1 mM trigonelline chloride and experimental measurements were started at Day 1 of wild type N2 worm adulthood, in a regimen of chronic exposure till experiments termination.

C. elegans [4] = details: 1 mM, vs control
Description: C. elegans mobility test was performed using the Movement Tracker software (Mouchiroud, L. et al. Curr Protoc Neurosci 77, 8.37.1-8.37.21 (2016)). The experiments were repeated at least twice. Trigonelline treatment and experimental measurements were started at Day 1 of wild type N2 worm adulthood, in a regimen of chronic exposure till experiments termination.

C. elegans [5] = details: 1 mM, chronic exposure from Day 1 adulthood
Description: Worm lifespan tests were performed using about 100 animals per condition and scored manually every other day. Trigonelline treatment and experimental measurements were started at Day 1 of wild type N2 worm adulthood, in a regimen of chronic exposure till experiments termination.

C. elegans [6] = details: 1 mM, day 8 and day 11 old worms, vs control
Source text: 45 to 60 worms per condition were manually scored for mobility after poking. Worms that were unable to respond to any repeated stimulation were scored as dead. […] Trigonelline treatment and experimental measurements were started at Day 1 of wild type N2 worm adulthood, in a regimen of chronic exposure till experiments termination.

C57BL/6JRj male mice = assay: Liver NAD+ in mice after oral gavage; type: in vivo; details: equimolar of 300 mg/kg trigonelline, 120 minutes
Description: FIG. 5—Liver NAD^+ levels of C57BL/6JRj mice measured 120 minutes after administration of 300 mg/kg trigonelline chloride or an equimolar amount of fenugreek seed extract by oral gavage
10 weeks C57BL/6JRj male mice received trigonelline (sigma #T5509) or fenugreek seed extract enriched in trigonelline (40.45% trigonelline) by oral gavage (equimolar of 300 mg/kg trigonelline, n=8/group). After 120 minutes treatment, the liver was harvested and flash frozen in liquid nitrogen. NAD^+ was measured in liver using an enzymatic method adapted from Dall, M., et al., Mol Cell Endocrinol, 2018. 473: p. 245-256.

[7] = test system: Human Skeletal Muscle Myotubes (HSMM); assay: Colorimetric NAD+ quantification in differentiated human primary myoblasts; type: cell-based; details: 16 h, different doses
Description: After one day, the differentiation is induced by a medium change for 4 days. Cells were treated with synthetic trigonelline monohydrate (FIG. 4A) or with Fenugreek seed extract enriched in trigonelline containing 40.45% trigonelline (FIG. 4B) for 16 h at difference doses. NAD^+ was measured using colorimetric NAD^+ quantification assay (Biovision NAD^+/NADH Quantitation Colorimetric Kit #k337-100).

Structure (SMILES): C[n+]1cccc(C(=O)[O-])c1 [trigonelline, 1-methylpyridin-1-ium-3-carboxylate]
- NAD+ relative concentration relative to control (LC-MS) ([1]; HSMM from 2 donors): enhancement of NAD+
- ratio of mitochondrial-encoded gene (nduo-1) to nuclear-encoded gene (act-1) (C. elegans [2]): higher than in the control group
- myofibrillar structure (GFP-tagged myosin) [3]: improved more organized myofibrillar structure

Structure (SMILES): [2H]C([2H])([2H])[n+]1cccc([13C](=O)[O-])c1 [labelled trigonelline]
- relative abundance of labelled NAD+ (M+1) ([1]; HSMM, vs naturally occurring NAD+ control): increase in relative abundance of labelled NAD+ (M+1)

Structure (SMILES): C[n+]1cccc(C(=O)O)c1.[Cl-] [trigonelline chloride]
- distance travelled during spontaneous mobility assay (C. elegans [4]; advanced aging phase): significantly increased
- mean speed during spontaneous mobility assay (C. elegans [4]; from day 1 adulthood): increased the mean speed compared to the control
- increase of lifespan (C. elegans [5]): 21%
- stimulated mobility score (worms responsive to a physical stimulus) (C. elegans [6]): more responsive to a physical stimulus than the control

Structure (SMILES): C[n+]1cccc(C(=O)[O-])c1 [chemically synthesized trigonelline, trigonelline monohydrate]
- NAD+ content in the liver compared to the control (C57BL/6JRj male mice): significant increase in NAD^+ content in the liver
- NAD+ content compared to the control [7]: significant increase in NAD^+ content
